The source of these data is patent US10435399B2, “HDAC6 inhibitory heterocyclic compound” (TAKEDA PHARMACEUTICAL COMPANY LIMITED, priority 2017, dated 2019).

For the first experiment, the target named is T1, HDAC6 enzyme (Homo sapiens, UniProt Q9UBN7).
T1 construct: transducing full length HDAC6 gene into Sf-9 insect cells; GST; purchased SignalChem; host or cells: Sf-9 insect cells
T1 sequence (Q9UBN7 1-1215): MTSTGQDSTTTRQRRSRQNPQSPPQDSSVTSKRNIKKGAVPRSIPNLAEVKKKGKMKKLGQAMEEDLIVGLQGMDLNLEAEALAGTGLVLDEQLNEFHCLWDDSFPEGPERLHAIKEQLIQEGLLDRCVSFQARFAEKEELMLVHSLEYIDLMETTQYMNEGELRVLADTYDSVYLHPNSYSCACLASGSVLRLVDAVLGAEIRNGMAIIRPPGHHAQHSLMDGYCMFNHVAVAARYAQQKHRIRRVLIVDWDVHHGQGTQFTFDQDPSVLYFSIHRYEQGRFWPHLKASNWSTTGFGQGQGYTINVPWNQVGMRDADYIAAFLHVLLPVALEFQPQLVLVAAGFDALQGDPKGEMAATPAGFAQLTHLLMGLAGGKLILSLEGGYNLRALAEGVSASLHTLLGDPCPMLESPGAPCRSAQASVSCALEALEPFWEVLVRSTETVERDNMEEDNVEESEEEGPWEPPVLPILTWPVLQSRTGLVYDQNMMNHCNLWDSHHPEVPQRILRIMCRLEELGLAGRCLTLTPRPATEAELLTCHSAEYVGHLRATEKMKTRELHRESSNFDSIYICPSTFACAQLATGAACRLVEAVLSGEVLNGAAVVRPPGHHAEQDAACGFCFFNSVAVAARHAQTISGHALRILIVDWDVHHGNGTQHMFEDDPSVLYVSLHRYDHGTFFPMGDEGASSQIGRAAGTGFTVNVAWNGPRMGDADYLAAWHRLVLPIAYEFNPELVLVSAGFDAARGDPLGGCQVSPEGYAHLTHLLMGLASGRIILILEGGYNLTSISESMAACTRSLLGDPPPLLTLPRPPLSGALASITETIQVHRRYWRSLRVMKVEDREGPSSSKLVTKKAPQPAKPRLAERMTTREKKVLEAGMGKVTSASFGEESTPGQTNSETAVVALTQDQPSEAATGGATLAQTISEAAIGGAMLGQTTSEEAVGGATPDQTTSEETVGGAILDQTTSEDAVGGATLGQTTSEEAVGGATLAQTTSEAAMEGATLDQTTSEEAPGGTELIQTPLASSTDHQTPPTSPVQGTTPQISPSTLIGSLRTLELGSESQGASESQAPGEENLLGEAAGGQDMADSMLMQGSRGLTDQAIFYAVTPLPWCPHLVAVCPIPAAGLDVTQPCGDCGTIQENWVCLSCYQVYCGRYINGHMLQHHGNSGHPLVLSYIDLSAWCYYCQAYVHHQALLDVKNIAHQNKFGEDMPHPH
Briefly: HDAC6 enzyme inhibitory activity (HDAC-Glo I/II Assay kit). The settings on record: 10 μM; wells without enzyme = 100% inhibition. It counts as biochemical. The procedure: HDAC6 enzyme prepared by transducing full length HDAC6 gene into Sf-9 insect cells and purifying by GST affinity column were purchased from SignalChem. Using this enzyme, HDAC6 enzyme inhibitory activities of the compound of the present invention were evaluated. Enzymes were used after preserved at −70° C. HDAC6 enzyme inhibitory activity of the compound of the present invention was measured using HDAC-Glo™ I/II Assay kit (Promega) according to the following experimental method. The test compound diluted with assay buffer (24 mM Tris-HCl (pH 7.5), 1 mM MgCl2, 0.35 mM KCl, 135 mM NaCl, 0.6 mM Glutathione, 0.01% Tween-20) was added to a 384-well plate by each 2 μL. Then, HDAC6 enzyme solution diluted with assay buffer was added thereto by each 4 μL, and the plate was incubated at room temperature for 60 min. After incubated, HDAC substrate-Developer solution prepared according to Promega protocol attached to the assay kit was added to the 384-well plate by each 2 μL, and the enzyme reaction was started. After reacting at room temperature for 20 min, luminescence level was measured using plate reader Envision (PerkinElmer). The inhibitory activity of each compound of Example was calculated as a relative activity value when luminescence level in wells without enzyme is considered as 100% inhibition.
In the case of `O=C1c2cc(-c3nnc(C(F)F)o3)ccc2CN1[C@@H]1CCC(F)(F)C[C@@H]1c1ccccn1` (relative stereo) [Example 591, 6-(5-(difluoromethyl)-1,3,4-oxadiazol-2-yl)-2-((1R*,2S*)-4,4-difluoro-2-(pyridin-2-yl)cyclohexyl)isoindolin-1-one (optical isomer)], the “HDAC6 inhibitory rate (%) (10 μM)” value is listed as 99%.

The experiment is the same for the next values; noted with them: 10 μM; wells without enzyme = 100% inhibition; read-out: HDAC6 inhibitory rate (%) (10 μM).
For `O=C(NC1CC(F)(F)CC[C@H]1N1Cc2ccc(-c3nnc(C(F)F)o3)cc2C1=O)OCc1ccccc1` (stereo in doubt) [Example 517, benzyl ((1S,2R)-2-(6-(5-(difluoromethyl)-1,3,4-oxadiazol-2-yl)-1-oxo-1,3-dihydro-2H-isoindol-2-yl)-5,5-difluorocyclohexyl) carbamate], the inhibition at 10 µM was found to be 100%.
On the same count and under the same terms, next, `O=C1CCCN1[C@@H]1COCC[C@H]1N1Cc2ccc(-c3nnc(C(F)F)o3)cc2C1=O` [Example 1, 6-(5-(difluoromethyl)-1,3,4-oxadiazol-2-yl)-2-((3S,4R)-3-(2-oxopyrrolidin-1-yl)tetrahydro-2H-pyran-4-yl)isoindolin-1-one]: 101%; `O=C1CCCN1[C@@H]1CCCC[C@H]1N1Cc2ccc(-c3nnc(C(F)F)o3)cc2C1=O` [Example 2, 6-(5-(difluoromethyl)-1,3,4-oxadiazol-2-yl)-2-((1R,2R)-2-(2-oxopyrrolidin-1-yl)cyclohexyl)isoindolin-1-one]: 99%; `CC(C)(C)OC(=O)N[C@@H]1CCCC[C@H]1N1Cc2ccc(-c3nnc(C(F)F)o3)cc2C1=O` [Example 3, tert-butyl ((1R,2R)-2-(6-(5-(difluoromethyl)-1,3,4-oxadiazol-2-yl)-1-oxo-1,3-dihydro-2H-isoindol-2-yl)cyclohexyl)carbamate]: 99%.
Consider `O=C1c2cc(-c3nnc(C(F)F)o3)ccc2CN1[C@@H]1CCCC[C@H]1N1CCCS1(=O)=O` [Example 4, 6-(5-(difluoromethyl)-1,3,4-oxadiazol-2-yl)-2-((1R,2R)-2-(1,1-dioxido-1,2-thiazolidin-2-yl)cyclohexyl)isoindolin-1-one], for which the inhibition at 10 µM was 99%.
As for `CC(=O)N[C@@H]1CCCC[C@H]1N1Cc2ccc(-c3nnc(C(F)F)o3)cc2C1=O` [Example 5, N-((1R,2R)-2-(6-(5-(difluoromethyl)-1,3,4-oxadiazol-2-yl)-1-oxo-1,3-dihydro-2H-isoindol-2-yl)cyclohexyl)acetamide], the inhibition at 10 µM worked out at 100%.
Same read-out and setting: next, `O=C1c2cc(-c3nnc(C(F)F)o3)ccc2CN1[C@@H]1CCCC[C@H]1NC(=O)C(F)(F)F` [Example 6, N-((1R,2R)-2-(6-(5-(difluoromethyl)-1,3,4-oxadiazol-2-yl)-1-oxo-1,3-dihydro-2H-isoindol-2-yl)cyclohexyl)-2,2,2-trifluoroacetamide]: 102%.
Same read-out and setting: next, `CCC(=O)N[C@@H]1CCCC[C@H]1N1Cc2ccc(-c3nnc(C(F)F)o3)cc2C1=O` [Example 7, N-((1R,2R)-2-(6-(5-(difluoromethyl)-1,3,4-oxadiazol-2-yl)-1-oxo-1,3-dihydro-2H-isoindol-2-yl)cyclohexyl)propanamide]: 99%.
Still for that read-out and setting: next, `O=C(N[C@@H]1CCCC[C@H]1N1Cc2ccc(-c3nnc(C(F)F)o3)cc2C1=O)OC1CC1` [Example 8, cyclopropyl ((1R,2R)-2-(6-(5-(difluoromethyl)-1,3,4-oxadiazol-2-yl)-1-oxo-1,3-dihydro-2H-isoindol-2-yl)cyclohexyl)carbamate]: 101%; `CC(C)C(=O)N[C@@H]1CCCC[C@H]1N1Cc2ccc(-c3nnc(C(F)F)o3)cc2C1=O` [Example 9, N-((1R,2R)-2-(6-(5-(difluoromethyl)-1,3,4-oxadiazol-2-yl)-1-oxo-1,3-dihydro-2H-isoindol-2-yl)cyclohexyl)-2-methylpropanamide]: 102%; `COC(=O)N[C@@H]1CCCC[C@H]1N1Cc2ccc(-c3nnc(C(F)F)o3)cc2C1=O` [Example 10, methyl((1R,2R)-2-(6-(5-(difluoromethyl)-1,3,4-oxadiazol-2-yl)-1-oxo-1,3-dihydro-2H-isoindol-2-yl)cyclohexyl)carbamate]: 99%.
As to `O=C(N[C@@H]1CCCC[C@H]1N1Cc2ccc(-c3nnc(C(F)F)o3)cc2C1=O)C1CC1` [Example 11, N-((1R,2R)-2-(6-(5-(difluoromethyl)-1,3,4-oxadiazol-2-yl)-1-oxo-1,3-dihydro-2H-isoindol-2-yl)cyclohexyl)cyclopropanecarboxamide], the inhibition at 10 µM came to 98%.
Still for that read-out and setting: next, `O=C(N[C@@H]1CCCC[C@H]1N1Cc2ccc(-c3nnc(C(F)F)o3)cc2C1=O)C1CCC1` [Example 12, N-((1R,2R)-2-(6-(5-(difluoromethyl)-1,3,4-oxadiazol-2-yl)-1-oxo-1,3-dihydro-2H-isoindol-2-yl)cyclohexyl)cyclobutanecarboxamide]: 100%; `O=C(CC(F)(F)F)N[C@@H]1CCCC[C@H]1N1Cc2ccc(-c3nnc(C(F)F)o3)cc2C1=O` [Example 13, N-((1R,2R)-2-(6-(5-(difluoromethyl)-1,3,4-oxadiazol-2-yl)-1-oxo-1,3-dihydro-2H-isoindol-2-yl)cyclohexyl)-3,3,3-trifluoropropanamide]: 101%.
As for `O=C1c2ccccc2CN1[C@@H]1CCCC[C@H]1N1Cc2ccc(-c3nnc(C(F)F)o3)cc2C1=O` [Example 14, 6-(5-(difluoromethyl)-1,3,4-oxadiazol-2-yl)-2-((1R,2R)-2-(1-oxo-1,3-dihydro-2H-isoindol-2-yl)cyclohexyl)isoindolin-1-one], the inhibition at 10 µM turned out to be 100%.
Consider `CC1(C(=O)N[C@@H]2CCCC[C@H]2N2Cc3ccc(-c4nnc(C(F)F)o4)cc3C2=O)CC1` [Example 15, N-((1R,2R)-2-(6-(5-(difluoromethyl)-1,3,4-oxadiazol-2-yl)-1-oxo-1,3-dihydro-2H-isoindol-2-yl)cyclohexyl)-1-methylcyclopropanecarboxamide], for which the inhibition at 10 µM came to 98%.
Still for that read-out and setting: next, `CC1(C(=O)N[C@@H]2CCCC[C@H]2N2Cc3ccc(-c4nnc(C(F)F)o4)cc3C2=O)COC1` [Example 16, N-((1R,2R)-2-(6-(5-(difluoromethyl)-1,3,4-oxadiazol-2-yl)-1-oxo-1,3-dihydro-2H-isoindol-2-yl)cyclohexyl)-3-methyloxetane-3-carboxamide]: 100%; `N#CC1(C(=O)N[C@@H]2CCCC[C@H]2N2Cc3ccc(-c4nnc(C(F)F)o4)cc3C2=O)CC1` [Example 17, 1-cyano-N-((1R,2R)-2-(6-(5-(difluoromethyl)-1,3,4-oxadiazol-2-yl)-1-oxo-1,3-dihydro-2H-isoindol-2-yl)cyclohexyl)cyclopropanecarboxamide]: 101%.
On the same count and under the same terms, next, `O=C(N[C@@H]1CCCC[C@H]1N1Cc2ccc(-c3nnc(C(F)F)o3)cc2C1=O)[C@@H]1CC1(F)F` [Example 18, (1S)—N-((1R,2R)-2-(6-(5-(difluoromethyl)-1,3,4-oxadiazol-2-yl)-1-oxo-1,3-dihydro-2H-isoindol-2-yl)cyclohexyl)-2,2-difluorocyclopropanecarboxamide]: 100%.
Turning to `O=C1c2cc(-c3nnc(C(F)F)o3)ccc2CN1[C@@H]1CCCC[C@H]1NC(=O)C1(F)CC1` [Example 19, N-((1R,2R)-2-(6-(5-(difluoromethyl)-1,3,4-oxadiazol-2-yl)-1-oxo-1,3-dihydro-2H-isoindol-2-yl)cyclohexyl)-1-fluorocyclopropanecarboxamide], the inhibition at 10 µM is 101%.
